In patent US20100292165A1, “Treatment of an intestinal adenoma and/or adenocarcinoma by inhibition of notch pathway activation” (Hubrecht Laboratorium a corporation of the Netherlands, priority 2004, published 2010):
Entries after “also recorded” stand apart in the source; their conditions may differ.

Legend:
[1] = system: adenomas of APC^min mice; experiment: Oral DAPT treatment of APC^min mice, histology of intestinal adenomas; assay type: in vivo, mouse; conditions: DAPT 100 mg/kg orally once daily
Description: The intestinal tract was dissected as a whole and flushed gently with cold PBS to remove any fecal content followed by a flush with Formalin. The small intestine was rolled up into a compact circle and fixed in Formalin at room temperature for 16 hours. The tissues were sectioned (2 to 6 μm). Following dewaxing and hydration, sections were pretreated with peroxidase blocking buffer (120 mM Na2HPO4, 43 mM citric acid, 30 mM NaN3, 0.2% H2O2; pH 5.8) for 15 minutes at room temperature. Antigen retrieval was performed by boiling samples in Na-citrate buffer (10 mM, pH 6.0). After 20 minutes, the boiling pan was allowed to slowly cool down to room temperature. Incubation of antibodies was performed in BSA in PBS overnight at 4° C. and at room temperature for one hour for Lysozyme, Ki67. In all cases, the Envision^+ kit (DAKO) was used as a secondary reagent. The incubation time was 30 minutes. Stainings were developed using DAB. Slides were then counterstained with hematoxylin and mounted. The probes used for in situ hybridization are as described (Schroder et al. 2002). Following dewaxing and hydration, tissues were incubated for five minutes in Alcian Blue (1% in 0.5% acetic acid). Subsequently washed in water, one minute incubated in Neutral Red. Quickly dehydrated, washed in Xylene and mounted with Pertex. The eight-week-old APC^min mice were treated with two different, orally deliverable γ-secretase inhibitors (DAPT: 100 mg/kg in corn oil) for 2.5, 6.5 or 15 days, after which their intestines were isolated and examined histologically. We then asked whether Notch pathway activity was essential for the maintenance of the undifferentiated, proliferative phenotype of adenoma cells. We elected to inhibit the Notch pathway pharmacologically through the use of the γ-secretase inhibitor DAPT. We then initiated treatment of fifteen-week-old APC^min mice that at this age carry 30 to 60 macroscopically detectable adenomas or polyps in the small intestine and one to three adenomas in the colon. The mice were treated with DAPT for up to 15 days, after which their intestines were examined histologically. Based on a pilot experiment and published treatment regimens, the APC^min mice were orally dosed once daily with DAPT at 100 mg/kg in maize oil.

[2] = target: γ-secretase; experiment: IC50 of γ-secretase inhibitors, assay not stated
Description: DAPT, DBZ or BZ are both effective in inducing the formation of a post-mitotic cell from an adenoma and/or adenocarcinoma cell and these compounds thus have a similar effect in a method according to the invention.

- IC50 [2]: 10 nM
Structure (SMILES): CC(NC(=O)Cc1cc(F)cc(F)c1)C(=O)NC(C(=O)OC(C)(C)C)c1ccccc1 [DAPT, N—[N-(3,5-difluorophenylacetyl)-L-alanyl]-S-phenylglycine t-butyl ester]
- effects in adenomas ([1]; day 2.5 or day 6.5 of treatment): No consistent effects
- Alcian Blue-positive goblet cells in adenomas ([1]; day 15): increase in goblet cells; also recorded: Large foci of Alcian Blue-positive goblet cells had appeared
- proliferation in adjacent, normal crypts ([1]; day 15): unaffected
- numbers of proliferating, Ki67-positive cells in adenomas ([1]; day 15, colon and small intestinal adenomas): strongly diminished; also recorded: dramatically decreased; also recorded: halted
